Measurements published in patent US20250057823A1, “COMPOSITION FOR IMPROVING CARDIAC FUNCTION” (Kyoto University, priority 2021, published 2025).
Where a name gives a salt, the structure may show the parent alone.

Tests used:
[1] = test system: mouse models of pressure overload-induced cardiac hypertrophy/heart failure (TAC); assay: Mouse models of TAC heart failure during heart failure phase; format: in vivo; conditions: 50 mg/kg i.p. daily for 3 weeks starting 5 weeks after TAC
Protocol: Transverse aortic constriction (TAC) was performed as described previously [Date, et al. (2002) The antioxidant N-2-mercaptopropionyl glycine attenuates left ventricular hypertrophy in in vivo murine pressure-overload model. J Am Coll Cardiol 39: 907-912.]. Briefly, 8- to 10-week-old mice were anesthetized with anesthetic (0.3 mg/kg of medetomidine, 4.0 mg/kg of midazolam, and 5.0 mg/kg of butorphanol) administered intraperitoneally, and the proximal portion of the sternum was cut open to visualize the aorta. A 7-0 silk suture was placed around the aortic arch distal to the brachiocephalic artery. The suture was tightened firmly around a blunt 26-gauge needle placed adjacent to the aorta. The needle was then removed, and the chest and overlying skin were closed. Sham-operated mice underwent an identical surgical procedure without ligation of the aortic arch. At the end of the operation, 0.3 mg/kg of atipamezole was administered subcutaneously to reverse medetomidine. FIG. 1 is a schematic diagram of TAC.
Total RNA was reverse transcribed by blend primer of random hexamers and oligo-dT 3:1 (volume/volume) using Verso™ cDNA Synthesis Kit (Thermo Fisher Scientific, AB1453A) in accordance with the manufacturer's protocol, and the cDNA was analyzed by qRT-PCR. qRT-PCR measurements used THUNDERBIRD SYBR qPCR Mix (TOYOBO) in accordance with the manufacturer's instructions. Expression levels of messenger RNAs (mRNAs) were normalized by the indicated housekeeping genes, and calculated by the 2^−ΔΔCt method. All analyses were performed using a StepOnePlus real-time PCR system and StepOne Software v2.3 (Applied Biosystems, Inc).
Tissues were fixed with 4% paraformaldehyde, dehydrated with 70% ethanol, and then embedded in paraffin. Deparaffinized sections were stained with hematoxylin solution for cell nucleus, and stained with eosin solution for cytoplasm. Images were captured by Axio Observer7 (Zeiss). Cardiomyocyte cross-sectional area measurement was performed using ImageJ64 software (NIH). Approximately 150-200 cells were measured per heart, and averages were used for the analysis.
As described above, deparaffinized sections were stained with hematoxylin solution for cell nucleus, Masson solution for cytoplasm, and aniline blue for collagen fiber. Images were captured by a microscopy (BZ-9000, Keyence). Aniline blue-stained regions were measured using ImageJ64 software (NIH).
To analyze the cardiac function, we used Vevo® 2100 (VISUALSONICS) at the indicated time points after TAC operation. Mice were kept under inhalation anesthesia with 2.5% isoflurane. LV function was measured in M mode of the parasternal short-axis view.
Mouse models of pressure overload-induced cardiac hypertrophy/heart failure were prepared by TAC and were injected intraperitoneally with 50 mg/kg of KUS121 daily for 3 weeks starting 5 weeks after TAC. Sham-operated mice and control mice were injected with 5% glucose. Echocardiography was performed 5 weeks and 8 weeks after TAC. Eight weeks after TAC, the mice were sacrificed, the body weight and heart weight were measured, and heart samples were collected.

[2] = test system: beagle dog models of heart failure; assay: Beagle dog models of rapid ventricular pacing-induced heart failure; format: in vivo
Protocol: After induction of general anesthesia with thiopental sodium (20 mg/kg, i.v.: 0.5 g of Labonal injection, Nipro ES Pharma Corporation) in 10- to 12-month-old male beagle dogs (9.80-11.50 kg), a tracheal cannula was inserted into the airway, and artificial respiration was performed with an Acoma veterinary ventilator (PRO-45Va, Acoma Medical Corporation). Anesthesia was maintained by inhalation of a gas mixture (Air:O2=3:0.2) and 1.0 to 2.5% isoflurane (isoflurane inhalation solution “Pfizer”, Mylan Seiyaku Co., Ltd.) using an Acoma animal anesthesia machine (NS-5000A, Acoma Medical Industry Co., Ltd.) to maintain a constant depth of anesthesia. An incision was made in the right side of the neck of the animal, an animal internal cardiac pacemaker (SIP-501, Star Medical Corporation) was implanted subcutaneously, a retractable screw-in reed (Tendril STS J, St. Jude Medical, Inc.) was inserted through the right jugular vein under X-ray fluoroscopy (BV Pulsera, Koninklijke Philips N.V.), and the tip was implanted in the right ventricular wall. Pacing was started at 244-251 beats/min on postoperative day 1. Dogs with ejection fraction (EF) decreasing to 30-50% at 4 weeks after pacemaker activation were considered to have heart failure and subjected to analysis.
Echocardiography was performed using a general-purpose ultrasound imaging system (Vivid S6, GE Medical Systems). The left ventricular end-diastolic diameter (LVIDd), left ventricular end-systolic diameter (LVIDs), ejection fraction (EF), and left ventricular internal diameter shortening (% FS) were measured in M-mode by placing a sector probe (10 MHz) on the chest.
Dogs were anesthetized intravenously with 14.5 to 22.3 mg/kg of secobarbital sodium (Injectable Ionar sodium (0.2), Nichi-Iko Co., Ltd.), followed by subcutaneous administration of 0.2 mg/kg of meloxicam (Metacam 0.5% injection, Boehringer Ingelheim Animal Health Japan Co.). A tracheal tube was inserted into the airway and connected to an Acoma animal ventilator (PRO-45Va, Acoma Medical Industry Co., Ltd.). The ventilator was set at a respiratory rate of 14-18 strokes/min and a tidal volume of 10-20 mL/kg/stroke, and respiration was controlled by an Acoma animal anesthesia machine (NS-5000A, Acoma Medical Industry Co., Ltd.) using a gas mixture (FiO2=0.3-1.0). The exhaled CO2 partial pressure was monitored using an exhaled carbon dioxide monitor (OLG-2800, Nihon Kohden Corporation). The animals were fixed in the dorsal position and the thighs and neck were shom. Anesthesia was maintained by continuous intravenous infusion of sodium secobarbital (5 mg/kg/hr) through the radial cutaneous vein using a Telfusion syringe pump (STC-523, Terumo Corporation). A Swan-Ganz catheter was inserted through the left femoral vein. A catheter for coronary angiography was inserted through the left femoral artery. A 5F sheath for arterial blood sampling was placed in the right femoral artery. A catheter for PV-loop analysis was inserted from the left internal carotid artery. An 8F occlusion balloon was placed from the right femoral vein for occlusion testing. In addition, KUS121 was administered from the left common jugular vein.
Beagle dog models of heart failure were prepared by rapid ventricular pacing. Cardiac function was assessed by echocardiography before KUS121 administration and after continuous infusion at 40 mg/h. KUS121 increased LVEF, even if it was based on either of the Teichholz method and the modified-Simpson's method, and increased % FS (FIG. 18). Changes in heart rate, systolic blood pressure, diastolic blood pressure, left ventricular ejection fraction, mean pulmonary artery pressure, pulmonary capillary wedge pressure, left ventricular end-diastolic pressure, and adjusted dp/dt are shown in FIGS. 19 to 21. […]

[3] = echocardiography, before vs after continuous infusion at 40 mg/h
[4] = infusion per FIG. 17 protocol, cardiac catheterization

Cc1cc(F)ccc1-c1ccc(/N=N/c2cc(S(=O)(=O)O)c3ccccc3c2N)cn1 [KUS121, 4-amino-3-[6-(4-fluoro-2-methylphenyl)pyridine-3-ylazo]naphthalene-1-sulfonic acid sodium salt]
cardiomyocyte cross-sectional area ([1]; TAC mice): suppressed it | fibrotic area in Masson's trichrome-stained heart ([1]; TAC mice): suppressed | heart weight ([1]; TAC mice, 8 weeks after TAC): suppressed the increase in heart weight | left ventricular systolic dysfunction (LVEF, echocardiography) ([1]; TAC mice, 8 weeks after TAC): suppressed the dysfunction | mRNA level of Col1a1 (cardiac fibrosis marker) ([1]; heart, qRT-PCR): suppressed | mRNA level of Postn (cardiac fibrosis marker) ([1]; heart, qRT-PCR): suppressed | mRNA level of VCP ([1]; heart, qRT-PCR): increased the mRNA level of VCP | mRNA levels of ANF, BNP, CHOP and Bip (other cardiac hypertrophy and endoplasmic reticulum stress markers) ([1]; heart, qRT-PCR): did not significantly affect the other mRNA levels | liver and kidney functions ([2]; blood samples collected during acute phase): remained normal | % FS (fractional shortening in left ventricle) [2, 3]: increased | LVEF based on the Teichholz method [2, 3]: increased | LVEF based on the modified-Simpson's method [2, 3]: increased | heart rate ([2]; infusion per FIG. 17 protocol): without affecting | left ventricular diastolic function ([2]; infusion per FIG. 17 protocol): improved | left ventricular systolic function ([2]; infusion per FIG. 17 protocol): improved | systolic blood pressure ([2]; infusion per FIG. 17 protocol): without affecting | pulmonary artery pressure [2, 4]: lowered | pulmonary capillary wedge pressure [2, 4]: lowered
